Test results as given in article PMC3157017 (Theranostics, 2011).

Target: integrin αvβ3 (Homo sapiens, UniProt P05106+P06756)
Experiment: Whole-cell integrin αvβ3 competitive displacement assay against ^125I-c
Format: binding

Question: With `N=C(N)NCCC[C@@H]1NC(=O)[C@H](CCCCNC(=O)CCOCCOCCOCCOCCNC(=O)CN2CCN(CC(=O)O)CCN(CC(=O)O)CCN(CC(=O)O)CC2)NC(=O)[C@@H](Cc2ccccc2)NC(=O)[C@H](CC(=O)O)NC(=O)CNC1=O` [DOTA-P-RGD, DOTA-PEG4-c(RGDfK)] as the compound, how does the IC50 read?
Answer: The IC50 was 44.3 ± 3.5 nM.
